Laboratory results reported in PubChem BioAssay (NCI).
Values joined by “and” are separate entries in the source; they are usually repeats but may differ in a detail not shown here. Equal values may be shown once.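 In this assay, cells in 96-well plates receive the compound at five concentrations for 48 hours. Endpoints are linearly interpolated between the surrounding concentrations. The concentration for full growth arrest is given as TGI.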

Columns and labels:
Experiment in all cases: NCI tumour cell line growth inhibition, 48 h
DMS 114 small cell lung = system: DMS 114 small cell lung
OVCAR-3 ovarian = system: OVCAR-3 ovarian
NCI-H226 lung = system: NCI-H226 lung
A498 renal = system: A498 renal
ACHN renal = system: ACHN renal
KM12 colon = system: KM12 colon
RPMI-8226 leukemia = system: RPMI-8226 leukemia
SNB-19 CNS = system: SNB-19 CNS
SR leukemia = system: SR leukemia
EKVX NSCLC = system: EKVX NSCLC
SK-MEL-2 melanoma = system: SK-MEL-2 melanoma
SK-MEL-28 melanoma = system: SK-MEL-28 melanoma
LOX IMVI melanoma = system: LOX IMVI melanoma
M19-MEL melanoma = system: M19-MEL melanoma
MALME-3M melanoma = system: MALME-3M melanoma
HOP-62 NSCLC = system: HOP-62 NSCLC
RXF 393 renal = system: RXF 393 renal
HCC-2998 colon = system: HCC-2998 colon
A549 NSCLC = system: A549 NSCLC
M14 melanoma = system: M14 melanoma
SF-539 CNS = system: SF-539 CNS
RXF-631 renal = system: RXF-631 renal
HOP-92 NSCLC = system: HOP-92 NSCLC
DLD-1 colon = system: DLD-1 colon
KM20L2 colon = system: KM20L2 colon
HCT-116 colon = system: HCT-116 colon
SK-MEL-5 melanoma = system: SK-MEL-5 melanoma
HT29 colon = system: HT29 colon
OVCAR-5 ovarian = system: OVCAR-5 ovarian
NCI-H23 lung = system: NCI-H23 lung
TK-10 renal = system: TK-10 renal
NCI-H460 lung = system: NCI-H460 lung
XF 498 CNS = system: XF 498 CNS
CCRF-CEM leukemia = system: CCRF-CEM leukemia
SW-620 colon = system: SW-620 colon
OVCAR-4 ovarian = system: OVCAR-4 ovarian
UACC-62 melanoma = system: UACC-62 melanoma
SK-OV-3 ovarian = system: SK-OV-3 ovarian
UACC-257 melanoma = system: UACC-257 melanoma
NCI-H522 lung = system: NCI-H522 lung
LXFL 529 NSCLC = system: LXFL 529 NSCLC
SNB-78 CNS = system: SNB-78 CNS
COLO 205 colon = system: COLO 205 colon
HOP-18 NSCLC = system: HOP-18 NSCLC
UO-31 renal = system: UO-31 renal
HCT-15 colon = system: HCT-15 colon
SF-295 CNS = system: SF-295 CNS
OVCAR-8 ovarian = system: OVCAR-8 ovarian
MOLT-4 leukemia = system: MOLT-4 leukemia
SF-268 CNS = system: SF-268 CNS
IGROV1 ovarian = system: IGROV1 ovarian
786-0 renal = system: 786-0 renal
U251 CNS = system: U251 CNS
HL-60(TB) leukemia = system: HL-60(TB) leukemia
DMS 273 small cell lung = system: DMS 273 small cell lung
CAKI-1 renal = system: CAKI-1 renal
SNB-75 CNS = system: SNB-75 CNS
SN12C renal = system: SN12C renal
K-562 leukemia = system: K-562 leukemia
T-47D breast = system: T-47D breast
HS 578T breast = system: HS 578T breast
MDA-MB-231 breast = system: MDA-MB-231 breast
NCI/ADR-RES ovarian = system: NCI/ADR-RES ovarian
BT-549 breast = system: BT-549 breast
DU-145 prostate = system: DU-145 prostate
MDA-MB-435 = system: MDA-MB-435
PC-3 prostate = system: PC-3 prostate
MCF7 breast = system: MCF7 breast

COc1ccc(/C=C/c2cc(OC)cc(OC)c2)cc1
TGI (DMS 114 small cell lung): 9.91 µM | TGI (OVCAR-3 ovarian): 8.78 µM | TGI (NCI-H226 lung): > 31.1 µM | TGI (A498 renal): > 61 µM | TGI (ACHN renal): > 100 µM | TGI (KM12 colon): > 69.1 µM | TGI (RPMI-8226 leukemia): 23.7 µM | TGI (SNB-19 CNS): > 100 µM | TGI (SR leukemia): > 100 µM | TGI (EKVX NSCLC): > 100 µM | TGI (SK-MEL-2 melanoma): > 57 µM | TGI (SK-MEL-28 melanoma): 65.7 µM | TGI (LOX IMVI melanoma): > 100 µM | TGI (M19-MEL melanoma): > 100 µM | TGI (MALME-3M melanoma): > 100 µM | TGI (HOP-62 NSCLC): 32.6 µM | TGI (RXF 393 renal): 10.7 µM | TGI (HCC-2998 colon): 33.2 µM | TGI (A549 NSCLC): > 100 µM | TGI (M14 melanoma): 53.1 µM | TGI (SF-539 CNS): 11 µM | TGI (RXF-631 renal): > 53.2 µM | TGI (HOP-92 NSCLC): > 100 µM | TGI (DLD-1 colon): > 100 µM | TGI (KM20L2 colon): 11.7 µM | TGI (HCT-116 colon): > 58 µM | TGI (SK-MEL-5 melanoma): > 100 µM | TGI (HT29 colon): > 36.6 µM | TGI (OVCAR-5 ovarian): > 50.1 µM | TGI (NCI-H23 lung): > 100 µM | TGI (TK-10 renal): > 100 µM | TGI (NCI-H460 lung): > 34.4 µM | TGI (XF 498 CNS): 98.9 µM | TGI (CCRF-CEM leukemia): 36.6 µM | TGI (SW-620 colon): > 100 µM | TGI (OVCAR-4 ovarian): > 100 µM | TGI (UACC-62 melanoma): > 100 µM | TGI (SK-OV-3 ovarian): 37.5 µM | TGI (UACC-257 melanoma): > 100 µM | TGI (NCI-H522 lung): 11.6 µM | TGI (LXFL 529 NSCLC): > 100 µM | TGI (SNB-78 CNS): 8.71 µM | TGI (COLO 205 colon): 10.7 µM | TGI (HOP-18 NSCLC): > 100 µM | TGI (UO-31 renal): > 64.2 µM | TGI (HCT-15 colon): > 100 µM | TGI (SF-295 CNS): > 31.3 µM | TGI (OVCAR-8 ovarian): > 100 µM | TGI (MOLT-4 leukemia): > 51 µM | TGI (SF-268 CNS): > 28.2 µM | TGI (IGROV1 ovarian): > 100 µM | TGI (786-0 renal): 59.6 µM | TGI (U251 CNS): > 59.8 µM | TGI (HL-60(TB) leukemia): 8.52 µM | TGI (DMS 273 small cell lung): 15.6 µM | TGI (CAKI-1 renal): 46.8 µM | TGI (SNB-75 CNS): > 35.6 µM | TGI (SN12C renal): > 45.4 µM | TGI (K-562 leukemia): > 100 µM

O=S(=O)(O)c1ccc(-c2c3nc(c(-c4ccc(S(=O)(=O)O)cc4)c4ccc([nH]4)c(-c4ccc(S(=O)(=O)O)cc4)c4nc(c(-c5ccc(S(=O)(=O)O)cc5)c5ccc2[nH]5)C=C4)C=C3)cc1
TGI (DMS 114 small cell lung): > 100 µM | TGI (T-47D breast): > 100 µM | TGI (OVCAR-3 ovarian): > 100 µM | TGI (NCI-H226 lung): 93.6 µM | TGI (A498 renal): > 100 µM | TGI (HS 578T breast): > 100 µM | TGI (ACHN renal): > 100 µM | TGI (KM12 colon): > 100 µM | TGI (RPMI-8226 leukemia): > 100 µM | TGI (SNB-19 CNS): > 100 µM | TGI (MDA-MB-231 breast): > 100 µM | TGI (SR leukemia): > 100 µM | TGI (NCI/ADR-RES ovarian): > 100 µM | TGI (EKVX NSCLC): > 100 µM | TGI (SK-MEL-2 melanoma): > 100 µM | TGI (SK-MEL-28 melanoma): > 100 µM and 73.4 µM | TGI (LOX IMVI melanoma): > 100 µM | TGI (M19-MEL melanoma): > 100 µM | TGI (MALME-3M melanoma): > 100 µM | TGI (HOP-62 NSCLC): > 100 µM | TGI (RXF 393 renal): 96.2 µM and 85.3 µM | TGI (HCC-2998 colon): > 100 µM | TGI (A549 NSCLC): > 100 µM | TGI (M14 melanoma): > 100 µM | TGI (SF-539 CNS): > 100 µM | TGI (BT-549 breast): 74.5 µM | TGI (RXF-631 renal): > 100 µM | TGI (HOP-92 NSCLC): > 100 µM and 76.8 µM | TGI (DLD-1 colon): > 100 µM | TGI (KM20L2 colon): > 100 µM | TGI (HCT-116 colon): > 100 µM | TGI (SK-MEL-5 melanoma): > 100 µM | TGI (HT29 colon): > 100 µM | TGI (OVCAR-5 ovarian): > 100 µM | TGI (NCI-H23 lung): > 100 µM | TGI (TK-10 renal): 73.9 µM and > 100 µM | TGI (DU-145 prostate): > 100 µM | TGI (NCI-H460 lung): > 100 µM | TGI (XF 498 CNS): > 100 µM | TGI (CCRF-CEM leukemia): 79.9 µM and > 100 µM | TGI (SW-620 colon): > 100 µM | TGI (OVCAR-4 ovarian): > 100 µM | TGI (UACC-62 melanoma): > 100 µM | TGI (SK-OV-3 ovarian): > 100 µM | TGI (UACC-257 melanoma): > 100 µM | TGI (MDA-MB-435): > 100 µM | TGI (NCI-H522 lung): > 100 µM | TGI (LXFL 529 NSCLC): > 100 µM | TGI (SNB-78 CNS): > 100 µM | TGI (COLO 205 colon): > 100 µM | TGI (HOP-18 NSCLC): > 100 µM | TGI (UO-31 renal): > 100 µM and 54.8 µM | TGI (HCT-15 colon): > 100 µM | TGI (PC-3 prostate): > 100 µM | TGI (SF-295 CNS): > 100 µM | TGI (OVCAR-8 ovarian): > 100 µM | TGI (MOLT-4 leukemia): 12.8 µM and > 100 µM | TGI (SF-268 CNS): > 100 µM | TGI (IGROV1 ovarian): > 100 µM | TGI (786-0 renal): > 100 µM | TGI (U251 CNS): > 100 µM | TGI (HL-60(TB) leukemia): > 100 µM | TGI (DMS 273 small cell lung): > 100 µM | TGI (CAKI-1 renal): > 100 µM | TGI (SNB-75 CNS): > 100 µM and 55.1 µM | TGI (MCF7 breast): > 100 µM | TGI (SN12C renal): > 100 µM | TGI (K-562 leukemia): > 100 µM
